A short description of data set [1]: Pharmacokinetic study after oral administration. Conditions: 10 mg/kg FST equivalent, C57BL6 mice, plasma. It is filed as in vivo. The method, then:
The animal experiments were performed in accordance with the Committee for the Purpose of Control and Supervision of Experiments on Animals (CPCSEA) guidelines after approval from Institutional Animal Ethics Committee (IAEC) of the institution (Approval no. IICT/39/2016). Female C57BL6 mice weighing from 18 to 22 g were kept for overnight fasting before the start of the experiment and allowed free access of water ad libitum.
C57BL6 mice were divided into two groups containing 27 animals in each. Animals in group I received pure FST (as 1% gum acacia suspension) orally at a dose of 10 mg/kg body weight and the animals in group II received FHIC-PNP (FST equivalent to 10 mg/kg) orally. At predetermined time intervals, blood samples were collected from retro-orbital plexus into centrifuge tube containing EDTA. Samples were centrifuged at 4000 rpm for 15 min and supernatant (plasma) was collected and stored at −80 °C for further analysis by LC/MS.
Plasma samples were extracted by solvent mixture composed of chloroform and acetonitrile (1:1). The mixture was kept in shaker for 10 min and the supernatant layer was transferred into another Eppendorf tubes. Evaporation of organic solvent was done on ScanVac speed vacuum concentrator and 100 μl of acetonitrile was added and vortexed. A volume of 2 μl aliquots of sample solution were injected into LC–MS/MS for analysis. The linearity of the method was evaluated by analyzing spiked calibration samples using six calibration standards over a calibration range of 0.5–800 ng/ml in mice plasma.
Analysis was carried out on U-HPLC instrument (Agilent Technologies, Santa Clara, CA) equipped with a quaternary pump, a degasser, a diode array detector, an auto sampler and a column compartment. Mass spectrometric analysis was carried out on an Agilent 6420 triple quadrupole (Agilent Technologies, Santa Clara, CA) equipped with electrospray ionization (ESI) source. The data acquisition was under the control of Mass Hunter software.
FST and baicalein, an internal standard (IS), were separated on Agilent Eclipse plus C18 (2.1 mm × 50 mm, 1.8 μm) at constant temperature of 40 °C. The initial mobile phase consisted of 10 mM of ammonium formate (pH 3.5) and acetonitrile with gradient elution at a flow rate of 0.4 ml/min. Elution was in a gradient, the acetonitrile was kept constant at 2% in 0.5 min, and then increased to 98% in 1.5 min and maintained at 98% for another 2 min, then decreased to 2% in 3.8 min and maintained for 2.2 min. The total run time of the analysis was 5 min. After each injection, the sample manager was cleaned by a needle wash process with methanol–water (70/30 v/v). The typical operating source condition for MS scan in negative ion ESI mode were optimized as follow: collision energy 33 eV, cell accelerator voltage 7 eV, fragmentor 135, dwell time 200 ms, gas temperature 280 °C, gas flow 10 l/min and nebulizer 50 psi. The MRM modes of ions with m/z 284.8 → 134.8 for FST and m/z 268.8 → 166.8 for IS (baicalein) were utilized for quantitative analysis.

On the set-up of data set [2]: method as in Bothiraja et al., 2014. The note with it: ref Bothiraja et al., 2014; cited from earlier work.
Details of data set [3]: method as in Seguin et al., 2013. The note with it: ref Seguin et al., 2013; cited from earlier work.
A short description of data set [4]: Encapsulation efficiency (indirect method). It is filed as physicochemical. Conditions: FST encapsulated in PLGA nanoparticles. On the procedure: The amount of drug loaded in the nanoparticles was determined by indirect method. Nanoparticle dispersion was centrifuged using Centrisart tubes (Sartorius, Bohemia, NY) and supernatant was analyzed for FST content using UV-visible spectrophotometry at 360 nm. The EE was calculated as follows: EE (%) = {(DT – DS)/DT} × 100, where DT=total FST added; DS=FST in the supernatant.

Data set [5] can be described thus: Apparent solubility of FST and FHIC in aqueous phase. The class given is physicochemical. The note with it: PBS. On the procedure:
For the determination of apparent solubility, native FST and FHIC were added into 10 ml of PBS and stirred in an orbital shaker for 24 h (Madan et al., [2012]). The solutions were centrifuged (10 000 rpm for 15 min), supernatant was collected and filtered through 0.22 μm filter. After appropriate dilution, FST absorbance was measured using UV-visible spectroscopy at 360 nm. The calibration curve was prepared in the range of 1–20 μg/ml. The observed regression equation was Y = 0.054X + 0.058 with r^2=0.997.

In a further data set the test system is MCF-7 cells. The data set can be described thus: Quantitative apoptosis by flow cytometer (Annexin V-FITC/PI). It is filed as cell-based, human. Conditions: MCF-7, equivalent to 20 μg/ml FST, 24 h. The method, then:
For the quantitative analysis of apoptosis, cells were treated with FST, FHIC or FHIC-PNP (equivalent to 20 μg/ml FST) for 24 h. Cells were trypsinized, centrifuged at 1200 rpm for 5 min, washed three times with ice-cold PBS and were re-suspended in 500 μl of binding buffer. Thereafter, 5 μl of Annexin V-FITC and 10 μl of PI were added and mixed for 15 min in the dark. The stained cells were analyzed using a flow cytometer (FACS Calibur, BD, San Jose, CA). Data analysis was performed using Cell-Quest software (Becton Dickinson, Franklin Lakes, NJ).
A general note: In flow cytometry, cells or beads pass a laser one at a time.

The nature of data set [6]: In vitro drug release (dialysis bag method). It is filed as physicochemical. Conditions: 8 h, PBS pH 7.4 with 0.1% v/v Tween 80, 37 °C. The method, then: Dialysis bag method was used to carry out the in vitro drug release studies. FST or FHIC-PNP dispersion equivalent to 1 mg of FST, was introduced into the dialysis bag (12 000–14 000 molecular weight cut off, Sigma Aldrich, St. Louis, MO) and placed in 100 ml of phosphate buffer saline pH 7.4 (PBS) containing 0.1%v/v Tween 80 as the release media and kept for stirring at 37 °C at 100 rpm. Samples were withdrawn at different time intervals and replaced with equal volume of media to maintain the sink condition. The collected samples were analyzed for amount of FST content by UV-visible spectrophotometry at 360 nm.

In data set [7] the test system is MCF-7 human breast adenocarcinoma cells. The data set can be described thus: Cell viability assay (MTT assay). The class given is cell-based. The note with it: MCF7, MCF-7, 24 h of treatment. On the procedure:
The cell viability assay (MTT assay) was performed in MCF-7 human breast adenocarcinoma cells. Cells were seeded at a density of 7 × 10^3 in DMEM medium supplemented with 10% FBS in a 96-well plate and incubated for 24 h at 37 °C in a humidified 5% CO2. The cells were exposed to different concentrations of FST, FHIC and FHIC-PNP for 24 h in order to ascertain the concentration at which 50% of the cells are viable. A volume of 10 μl of MTT solution (5 mg/ml in PBS) was added to each well. The plate was incubated for 4 h and thereafter the contents in the wells were replaced with 100 μl DMSO and again incubated for 10 min. The optical density was measured using a microplate reader (BioTek Instruments, Synergy 4, Winooski, VT) at 570 nm. The cytotoxicity of blank PNP was also studied to determine the toxicity of the nanocarrier system.

The text below walks through data of article PMC8241160, “Enhanced oral bioavailability and anticancer efficacy of fisetin by encapsulating as inclusion complex with HPβCD in polymeric nanoparticles” (Drug Delivery, 2017).

Converted amounts (≈) assume the structure as drawn.

For orientation: AUC(0-inf) means the area under the concentration-time curve extrapolated to infinity. Broadly, the AUC(0-t) is exposure summed from dosing to a finite time, without extrapolation to infinity. A word on the Cmax: it is the highest concentration seen after dosing. By MRT is commonly meant a mean duration of stay, worked out from the concentration-time curve. As usually defined, the Tmax is the time at which the peak concentration occurs. What is called half-life is how long it takes for the measured level to halve. Usually aqueous solubility stands for the dissolved amount per volume that the medium holds. As a reminder, the solubility is the dissolved amount per volume that the medium holds. A word on the IC50: it is the point on the concentration scale where inhibition reaches its midpoint. In the case of `O=c1c(O)c(-c2ccc(O)c(O)c2)oc2cc(O)ccc12` [FST, 2-(3,4-dihydroxyphenyl)-3,7-dihydroxychromen-4-one], the Cl in data set [1] turned out to be 2022.59 ± 0.02 mL/h. Further, in data set [1] (female, mouse), the AUC(0-inf) is 100 ± 2.91 ng·h/mL, the AUC(0-t) turned out to be 80.4 ± 3.61 ng·h/mL, the maximum concentration (Cmax) is 69.3 ± 4.16 ng/mL and the MRT came out at 3.82 ± 2.15 h. Besides, in data set [1] (female, mouse), the Tmax turned out to be 0.25 ± 1.2 h and the half-life was 3.26 ± 0.9 h. The aqueous solubility in data set [2] is 10.45 µg/mL (≈ 36.5 µM). For the same compound, the oral bioavailability in data set [3] is reported as 44.1%. Moreover, the “encapsulation/entrapment efficiency (EE)” value in data set [4] (listed as native FST) worked out at 47%. The “encapsulation/entrapment efficiency (EE)” value in data set [4] (listed as pure FST) came out at 47.3%. The solubility at 24 h in data set [5] amounted to 5.25 µg/mL (≈ 18.3 µM). In addition, the apoptosis induction with MCF-7 cells worked out at 21.8%. Moreover, the “FST released in vitro” value in data set [6] is reported as “about 93%”. The IC50 in data set [7] came out at 77.8 ± 2.12 µg/mL.
